Read-outs that look alike come from different tables or passages of the source.
What was measured:
[1] = test system: washed human platelets, TRAP-induced aggregation; experiment: In vitro test for inhibition of human platelet aggregation induced by TRAP; type: cell-based; conditions: Platelet
Excerpt: I.b. In vitro Test for Inhibition of Human Platelet Aggregation Induced by TRAP
Introduction: Addition of trombin receptor agonist peptide (TRAP) to washed human platelets (WPL) in vitro induces platelet aggregation. This aggregation can be determined by measuring the optical density of the WPL. The in vitro test described here is used to analyze the activity of a test compound to inhibit TRAP-induced aggregation of human platelets. A micro plate reader is used to measure the activity of several compounds simultaneously.
(§1) An alternative vehicle is 0.9% NaCl in MQ H2O. The compound solution (either in MQ H2O or 0.9% NaCl in MQ H2O) is further diluted in 0.9% NaCl in MQ H2O.
Free-flowing blood (at least 100 mL) is taken from a healthy volunteer and collected in 0.1 volume 3.8% sodium citrate. 2H2O in MQ H2O (w/v). The final concentration is 0.38% sodium citrate. The citrated blood is centrifuged at 1,600 N/kg (160 g) in Hettich Rotanta/AP centrifuge (750 rpm) at RT. After 15 min, centrifugation is discontinued with the brake turned off and the supernatant (=PRP) is collected. • 2. Washed platelets (WPL):
After adding freshly made 1 μL PGI2 solution per ml PRP, the suspension is centrifuged at 13,500 N/kg (1,350 g) for 10 min in a Hettich Rotanta/AP centrifuge (i.e., 2,800 rpm) at RT. After gentle resuspension of the pellet in the same volume of fresh Watson buffer containing 5 ng/mL PGI2, the suspension is centrifuged at 1,350 g (2,800 rpm) for 10 min at RT again. The final platelet pellet is resuspended in Watson buffer to give approx. 400,000±50,000 platelets/[…]. • 3. Watson buffer:
134 mM NaCl, 2.9 mM KCl, 12 mM NaHCO3, 0.34 mM Na2HPO4.2H2O, 1 mM MgCl2.6H2O, 5 mM Glucose and 5 mM HEPES in MQ H2O. The pH is adjusted to 7.4 with 1 M NaOH. • 4. Prostaglandin I2 (Sigma, P6188 powder):
The PGI2 stock solution of 1 mg/mL in 1 M KOH is stored in aliquots of 100 μL at −20° C. Immediately before use, a solution of 5 μg/mL in ice-cold 0.9% NaCl in MQ H2O is prepared. • 5. Human Fibrinogen (Kordia/ERL, art nr: FIB 2 powder):
0.5 g fibrinogen powder is dissolved in 50 mL MQ H2O under vacuum. This stock solution is stored in aliquots of 1 mL at −20° C. Before use, a solution of 0.5 mg/mL in saline is prepared.
Before use, a solution of 50 μM TRAP in 0.9% NaCl in MQ H2O is prepared. For each test, a fresh solution is made.
• 1. Sysmex cell counter model KX-21 • 2. Labsystems iEMS reader MF with a 405 nm filter, an orbital shaker set at 1,000 rpm and a constant temperature of 37° C. Absorptions are measured with the Labsystems iEMS program. • 3. Blood collection system 600 mL with needle, art nr P4203 (NPBI) • 4. 96 wells micro plates (Greiner Labortechnik) flat-bottom
Procedure: The WPL concentration is counted in a Sysmex blood cell counter and the suspension is diluted with Watson buffer to obtain a concentration of 400,000±50,000 plt/μL. Before use, WPL is allowed to stabilize at room temperature for at least 20 min but not longer than 3-4 hours.
TRAP-induced aggregation: 150 μL WPL is pipetted into a well of a micro plate. 15 μL test compound or vehicle and 15 μL fibrinogen solution is added and the micro plate is placed in the micro plate reader at 37° C. Then, the optical density (OD) is measured at 405 nm and after shaking for 2 min in the reader, the OD405 is measured again to verify the stability of the platelets (absence of spontaneous platelet aggregation). 20 μL of 50 μM TRAP is added and the OD405 is kinetically measured every min for 14 min at 405 nm. Between two measurements, the plate is shaking for 40 seconds at 1,000 rpm (FIG. 1). For determination of the IC50 of a test compound, each test compound is investigated in at least 2 experiments using WPL from different volunteers.
Evaluation of response: The mean OD of each concentration (including vehicle) is calculated at t=0 min and t=10 min. The percentage inhibition at each concentration is calculated using the formula: […]

[2] = test system: human platelets (platelet rich plasma), ADP-induced aggregation; experiment: In vitro test for inhibition of human platelet aggregation induced by ADP; type: cell-based; conditions: Platelet
Excerpt: I.a. In vitro Test for Inhibition of Human Platelet Aggregation Induced by ADP
Addition of adenosine diphosphate (ADP) to human platelet rich plasma (PRP) in vitro induces platelet aggregation. This aggregation can be assessed by measuring the optical density (OD) of the PRP. The in vitro test described here was used to determine the inhibitory activity of a test compound on the ADP-induced aggregation of human platelets. A micro plate reader is used to measure the activity of several compounds simultaneously.
as §1
Free-flowing blood (at least 100 mL) is taken from a healthy volunteer and collected in 0.1 volume 3.8% sodium citrate. 2H2O in distilled H2O (w/v). The final concentration is 0.38% sodium citrate.
The citrated blood is centrifuged at 1,600 N/kg (160 g) at RT. After 15 min, centrifugation is discontinued with the brake turned off and the supernatant (=PRP) is collected. • 2. ADP (Kordia/Chrono-par # 384). Before use, a solution of 50 μM in 0.9% NaCl is prepared. Equipment • 1. Sysmex blood cell counter model KX-21. • 2. Labsystems iEMS reader MF with a 620 nm filter, an orbital shaker set at 1,000 rpm and a constant temperature of 37° C. Absorption is measured with the Labsystems iEMS program. • 3. Blood collection system 600 mL with needle, art P4203 (NPBI). • 4. 96 wells flat bottom micro plates (Greiner Labortechnik). Procedure
The platelets in the supernatant (PRP) are counted using a Sysmex blood cell counter and the supernatant is diluted with PPP to obtain a PRP containing 400,000±50,000 plt/μL. PRP should stabilize at RT for at least 20 min but not longer than 3 h.
150 μL PRP is pipetted into a well of the micro plate. 30 μL test compound in a range of concentrations (7 concentrations per compound) or vehicle is added and the micro plate is placed in the Labsystems iEMS reader MF at 37° C. The optical density (OD620) is then measured at 620 nm. After shaking for 2 min in the reader (1,000 rpm), the OD is measured for the second time. This is to verify the stability of the platelets (absence of spontaneous platelet aggregation). Then, 20 μL of 50 μM ADP solution is added and the OD is kinetically measured every min for 14 min at 620 nm (FIG. 1). Between two measurements, the plate is shaking for 40 seconds at 1,000 rpm. Each test compound is investigated in at least 2 experiments using PRP from different volunteers.
The mean OD at each compound concentration (including vehicle) is calculated at t=0 min and t=10 min. The percentage inhibition at each concentration is calculated using the formula: […]
The IC50 of the test compound is the concentration of the test compound at which the ADP-induced platelet aggregation is reduced by 50%. For this, the percentage inhibition values are plotted against compound concentration. Then, IC50, nH (Hill slope) and efficacy of the test compound is calculated using Graphpad Prism 3.0 (with variable slope).
Reference: Salmon, D. M. (1996) Thrombosis Research 84, 213-216.

[3] = 5 μM TRAP, washed human platelets, mean of n experiments, entries marked b measured with a Chronolog aggregometer, others with micro plate reader, read-out: Inhibition of TRAP (5 μM)-induced human platelet aggregation (IC50), mean
[4] = 5 μM ADP, human PRP, mean of n experiments, entries marked b measured with a Chronolog aggregometer, others with micro plate reader, read-out: Inhibition of ADP-induced (5 μM) human platelet aggregation (IC50), mean

| Structure (SMILES) | IC50 [1, 3] | IC50 [2, 4] | IC50 ([1]; Homo sapiens, read-out: IC50, inhibition of human platelet aggregation induced by 5 μM TRAP (reference compound)) | IC50 ([2]; Homo sapiens, read-out: IC50, inhibition of human platelet aggregation induced by 5 μM ADP (reference compound)) |
| --- | --- | --- | --- | --- |
| O=C(O)C[C@H](NC(=O)[C@@H]1CCCN(C(=O)CCC2CCNCC2)C1)C(=O)O [Compound VI, {N-3-[4-piperidinepropionyl]-(R)-(−)-nipecotyl}-L-aspartate] | 6290 nM | 22600 nM | – | – |
| CC(C)(C)OC(=O)COCCOCCOCCOCCNC(=O)[C@H](Cc1ccccc1)NC(=O)[C@H](CC(=O)O)NC(=O)[C@@H]1CCCN(C(=O)CCC2CCNCC2)C1 [IX, tert-Butyl N-{[N-3-(4-piperidinepropionyl)-(R)-(−)-nipecotyl]-L-aspartyl-L-phenylalanyl}-15-aza-3,6,9,12-tetraoxa-pentadecanoate] | – | 1180 nM | – | – |
| N=C(N)c1ccc(NC(=O)CCC(=O)N[C@@H](CC(=O)O)C(=O)O)cc1 [XVIII, reference compound] | 1190 nM | 2010 nM | – | – |
| CCCCS(=O)(=O)N[C@@H](Cc1ccc(OCCCCC2CCNCC2)cc1)C(=O)O [tirofiban, reference compound] | – | – | 30 to 60 nM | 30 to 60 nM |

Second part, led by results:

| IC50 [1, 3] | IC50 [2, 4] | Structure (SMILES) | IC50 ([1]; Homo sapiens, read-out: IC50, inhibition of human platelet aggregation induced by 5 μM TRAP (reference compound)) | IC50 ([2]; Homo sapiens, read-out: IC50, inhibition of human platelet aggregation induced by 5 μM ADP (reference compound)) |
| --- | --- | --- | --- | --- |
| 220 nM | 610 nM | CC(C)(C)OC(=O)COCCOCCOCCOCCNC(=O)[C@H](Cc1ccccc1)NC(=O)[C@H](CC(=O)O)NC(=O)CCNC(=O)c1ccc(C(=N)N)cc1 [Compound I, tert-Butyl({N-(4-amidinobenzoyl)-β-alanyl}-L-aspartyl-L-phenylalanyl)-15-aza-3,6,9,12-tetraoxa-pentadecanoate] | – | – |
| 120 nM | 350 nM | CC(C)(C)OC(=O)COCCOCCOCCOCCNC(=O)[C@H](Cc1ccccc1)NC(=O)[C@H](CC(=O)O)NC(=O)CCC(=O)Nc1ccc(C(=N)N)cc1 [Compound IV, tert-Butyl N-{(4-benzamidino)-succinamyl}-L-aspartyl-L-phenylalanyl-15-aza-3,6,9,12-tetraoxa-pentadecanoate] | – | – |
| 270 nM | 380 nM | CC(C)(C)OC(=O)COCCOCCOCCOCCNC(=O)[C@H](CC(=O)O)NC(=O)[C@@H]1CCCN(C(=O)CCC2CCNCC2)C1 [Compound VII, tert-Butyl N-{[N-3-(4-piperidinepropionyl)-(R)-(−)-nipecotyl]-L-aspartyl}-15-aza-3,6,9,12-tetraoxa-pentadecanoate] | – | – |
| 250 nM | 380 nM | CC(C)(C)OC(=O)COCCOCCOCCOCCNC(=O)[C@H](CC(=O)O)NC(=O)CCC(=O)Nc1ccc(C(=N)N)cc1 [III, tert-Butyl N-{(4-benzamidino)-succinamyl}-L-aspartyl-15-aza-3,6,9,12-tetraoxa-pentadecanoate] | – | – |
| 380 nM | 310 nM | O=C(O)CCNC(=O)[C@@H]1CCCN(C(=O)CCC2CCNCC2)C1 [XX, reference compound] | – | – |

Reference: US7576071B2, “Antithrombotic compound” (sanofi-aventis, priority 2004, dated 2009)
